Our source for the Ki values is patent publication US8796289B2 (AbbVie Inc., priority 2011, dated 2014).

The term Ki denotes the equilibrium dissociation constant of an inhibitor or competing ligand from its target.

GST-tagged-Wee1 kinase, sequence (P30291 whole entry): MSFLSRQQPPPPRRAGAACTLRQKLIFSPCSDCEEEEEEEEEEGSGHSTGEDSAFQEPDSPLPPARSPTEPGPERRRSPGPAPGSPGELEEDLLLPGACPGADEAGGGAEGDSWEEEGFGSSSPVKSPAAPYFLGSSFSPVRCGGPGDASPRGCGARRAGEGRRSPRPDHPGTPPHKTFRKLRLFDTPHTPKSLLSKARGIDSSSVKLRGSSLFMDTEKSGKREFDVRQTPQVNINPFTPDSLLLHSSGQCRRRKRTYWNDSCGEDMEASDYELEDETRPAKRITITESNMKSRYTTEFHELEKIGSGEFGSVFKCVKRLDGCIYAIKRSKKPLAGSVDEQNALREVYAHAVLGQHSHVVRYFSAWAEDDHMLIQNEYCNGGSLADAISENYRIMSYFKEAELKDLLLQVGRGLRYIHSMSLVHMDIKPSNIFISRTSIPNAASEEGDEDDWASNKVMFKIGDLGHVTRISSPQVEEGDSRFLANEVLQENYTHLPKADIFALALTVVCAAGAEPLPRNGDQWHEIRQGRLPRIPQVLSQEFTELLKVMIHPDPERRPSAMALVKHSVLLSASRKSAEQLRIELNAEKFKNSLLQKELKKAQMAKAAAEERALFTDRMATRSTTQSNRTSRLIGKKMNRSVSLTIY

For the assay, the target named is GST-tagged-Wee1 kinase (Homo sapiens, UniProt P30291). Put plainly: Wee1 time-resolved fluorescence equilibrium binding assay (displacement of Oregon Green-labeled ATP-competitive kinase probe). The procedure:
Wee1 kinase was assayed using a time-resolved fluorescence equilibrium binding assay monitoring displacement of a rapidly reversible Oregon Green-labeled ATP-competitive kinase probe (N-(2-(2-(2-(4-(4-(5-chloro-4-(2-(1-hydroxycyclobutyl)thiazol-5-yl)-1H-pyrrolo[2,3-b]pyridin-2-yl)phenyl)piperazin-1-yl)ethoxy)ethoxy)ethyl)-2′,7′-difluoro-3′,6′-dihydroxy-3-oxo-3H-spiro[isobenzofuran-1,9′-xanthene]-5-carboxamide) by competitive Wee1 inhibitors.
With `CN1CCN(c2ccc(Nc3ncc4c(=O)n(-c5ccccc5)nc(-c5cnn(C)c5)c4n3)cc2)CC1` [Example 85, 2-{[4-(4-methylpiperazin-1-yl)phenyl]amino}-8-(1-methyl-1H-pyrazol-4-yl)-6-phenylpyrimido[4,5-d]pyridazin-5(6H)-one], the affinity, expressed as Ki, was 24.7 nM.

Regarding `CN1CCN(c2ccc(Nc3ncc4c(=O)n(-c5c(Cl)cccc5Cl)nc(-c5cnn(C)c5)c4n3)cc2)CC1` [Example 87, 6-(2,6-dichlorophenyl)-2-{[4-(4-methylpiperazin-1-yl)phenyl]amino}-8-(1-methyl-1H-pyrazol-4-yl)pyrimido[4,5-d]pyridazin-5(6H)-one], the Ki came out at 0.1 nM.

Consider `CN1CCN(c2ccc(Nc3ncc4c(=O)n(-c5c(Cl)cccc5Cl)nc(-c5cccc(O)n5)c4n3)cc2)CC1` [Example 88, 6-(2,6-dichlorophenyl)-8-(6-hydroxypyridin-2-yl)-2-{[4-(4-methylpiperazin-1-yl)phenyl]amino}pyrimido[4,5-d]pyridazin-5(6H)-one], for which affinity was put at a Ki of 5 nM. This Ki lies about 50-fold higher than the previous one.

In turn, `CN1CCN(c2ccc(Nc3ncc4c(=O)n(-c5c(Cl)cccc5Cl)nc(-c5cccc(C#N)c5)c4n3)cc2)CC1` [Example 89, 3-[6-(2,6-dichlorophenyl)-2-{[4-(4-methylpiperazin-1-yl)phenyl]amino}-5-oxo-5,6-dihydropyrimido[4,5-d]pyridazin-8-yl]benzonitrile] displayed a Ki of 0.07 nM.

Compound `CN1CCN(c2ccc(Nc3ncc4c(=O)n(-c5c(Cl)cccc5Cl)nc(-c5cccc(N(C)C)c5)c4n3)cc2)CC1` [Example 90, 6-(2,6-dichlorophenyl)-8-[3-(dimethylamino)phenyl]-2-{[4-(4-methylpiperazin-1-yl)phenyl]amino}pyrimido[4,5-d]pyridazin-5(6H)-one] gave a Ki of 0.2 nM.

For `CN1CCN(c2ccc(Nc3ncc4c(=O)n(-c5c(Cl)cccc5Cl)nc(-c5cccc(-c6c[nH]cn6)c5)c4n3)cc2)CC1` [Example 91, 6-(2,6-dichlorophenyl)-8-[3-(1H-imidazol-4-yl)phenyl]-2-{[4-(4-methylpiperazin-1-yl)phenyl]amino}pyrimido[4,5-d]pyridazin-5(6H)-one], the Ki turned out to be 0.3 nM.

As to `CN1CCN(c2ccc(Nc3ncc4c(=O)n(-c5c(Cl)cccc5Cl)nc(-c5cccc(-c6ccc[nH]6)c5)c4n3)cc2)CC1` [Example 92, 6-(2,6-dichlorophenyl)-2-{[4-(4-methylpiperazin-1-yl)phenyl]amino}-8-[3-(1H-pyrrol-2-yl)phenyl]pyrimido[4,5-d]pyridazin-5(6H)-one], the Ki turned out to be 8 nM.

Regarding `CN1CCN(c2ccc(Nc3ncc4c(=O)n(-c5c(Cl)cccc5Cl)nc(-c5cccc(N6CCCCC6=O)c5)c4n3)cc2)CC1` [Example 93, 6-(2,6-dichlorophenyl)-2-{[4-(4-methylpiperazin-1-yl)phenyl]amino}-8-[3-(2-oxopiperidin-1-yl)phenyl]pyrimido[4,5-d]pyridazin-5(6H)-one], the affinity corresponds to a Ki of 0.1 nM. This Ki is about 80-fold lower than that of the compound before.

Compound `CN1CCN(c2ccc(Nc3ncc4c(=O)n(-c5ccccc5Cl)nc(-c5ccoc5)c4n3)cc2)CC1` [Example 94, 6-(2-chlorophenyl)-8-(3-furyl)-2-{[4-(4-methylpiperazin-1-yl)phenyl]amino}pyrimido[4,5-d]pyridazin-5(6H)-one] had a Ki of 0.5 nM.

Take `CN1CCN(c2ccc(Nc3ncc4c(=O)n(-c5ccccc5Cl)nc(-c5ccsc5)c4n3)cc2)CC1` [Example 96, 6-(2-chlorophenyl)-2-{[4-(4-methylpiperazin-1-yl)phenyl]amino}-8-(3-thienyl)pyrimido[4,5-d]pyridazin-5(6H)-one]: affinity was put at a Ki of 0.2 nM. This Ki lies about 2.5-fold lower than the previous one.

Regarding `CN1CCN(c2ccc(Nc3ncc4c(=O)n(-c5c(Cl)cccc5Cl)nc(-c5ccsc5)c4n3)cc2)CC1` [Example 97, 6-(2,6-dichlorophenyl)-2-{[4-(4-methylpiperazin-1-yl)phenyl]amino}-8-(3-thienyl)pyrimido[4,5-d]pyridazin-5(6H)-one], the affinity corresponds to a Ki of 0.06 nM.
